System: variants of SARS-CoV-2
Experiment: Infection of cells with a SARS-CoV-2 variant in the same manner
Type: cell-based
Details: cells infected with a variant in the same manner

NCC(=O)CCC(=O)O [5-ALA, 5-aminolevulinic acid]
inhibitory effect on SARS-CoV-2 infection and/or proliferation (variant): inhibitory effect on SARS-CoV-2 infection and/or proliferation is expected

Reference: US20230190690A1, “[…] AND/OR […] FOR CORONAVIRUS DISEASE 2019 (COVID-19)” (NEOPHARMA JAPAN CO., LTD., priority 2020, published 2023)
